Patent US12187713B2, “Immunomodulators, compositions and methods thereof” (Betta Pharmaceuticals Co., Ltd, priority 2019, dated 2025)
pIC50: −log10 of the molar value.

Each molecule was assayed against PD-1/PD-L1 (Homo sapiens (Human), UniProt Q9NZQ7) (assay: PD-1/PD-L1 Binding Assay (Alphascreen)). Conditions: numeric values.
Sequence of PD-1/PD-L1 (Q9NZQ7 19-238): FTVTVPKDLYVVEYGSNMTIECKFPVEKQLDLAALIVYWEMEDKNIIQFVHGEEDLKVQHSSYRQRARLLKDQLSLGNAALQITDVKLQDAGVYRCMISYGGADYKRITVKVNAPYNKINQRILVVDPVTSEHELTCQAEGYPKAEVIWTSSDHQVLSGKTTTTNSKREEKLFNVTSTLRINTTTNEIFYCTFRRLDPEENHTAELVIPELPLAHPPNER
Summary of the method: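 PD-1/PD-L1 binding detected by anti-6×His acceptor and streptavidin donor beads after 120 min in the dark at 25 °C. Beforehand, the two proteins were incubated 15 min at 25 °C with inhibitor at 0.015–300 nM (1% DMSO). IC50 comes from a log concentration–response curve.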
`COC(=O)N[C@H](C(=O)N[C@H]1CCN(Cc2ccc(-c3cccc(-c4cccc(-c5nc6cc(CN7CCC[C@H]7C(=O)O)c(OC(F)F)cc6o5)c4C)c3C)cc2)C1)C(C)C` [Example 257, ((6-(difluoromethoxy)-2-(4″-(((S)-3-((S)-2-((methoxycarbonyl)amino)-3-methylbutanamido)pyrrolidin-1-yl)methyl)-2,2′-dimethyl-[1,1′:3′,1″-terphenyl]-3-yl)benzo[d]oxazol-5-yl)methyl)-L-proline] gave a pIC50 of 8.36. Molecule `Cc1c(-c2ccc(CN3CCCC3)nc2)cccc1-c1cccc(-c2nc3cc(CN4CCC[C@H]4C(=O)O)c(OC(F)F)cc3o2)c1C` [Example 263, ((6-(difluoromethoxy)-2-(2,2′-dimethyl-3′-(6-(pyrrolidin-1-ylmethyl)pyridin-3-yl)-[1,1′-biphenyl]-3-yl)benzo[d]oxazol-5-yl)methyl)-L-proline] has a pIC50 of 9.01. For `Cc1c(-c2cnc(CN3CCCC3)c(F)c2)cccc1-c1cccc(-c2nc3cc(CN4CCC[C@H]4C(=O)O)c(OC(F)F)cc3o2)c1C` [Example 265, ((6-(difluoromethoxy)-2-(3′-(5-fluoro-6-(pyrrolidin-1-ylmethyl)pyridin-3-yl)-2,2′-dimethyl-[1,1′-biphenyl]-3-yl)benzo[d]oxazol-5-yl)methyl)-L-proline], the pIC50 was 9.14. Work on `Cc1c(-c2cnc(CN3CCCC3)nc2)cccc1-c1cccc(-c2nc3cc(CN4CCC[C@H]4C(=O)O)c(OC(F)F)cc3o2)c1C` [Example 281, ((6-(difluoromethoxy)-2-(2,2′-dimethyl-3′-(2-(pyrrolidin-1-ylmethyl)pyrimidin-5-yl)-[1,1′-biphenyl]-3-yl)benzo[d]oxazol-5-yl)methyl)-L-proline] yielded a pIC50 of 8.89.

Same assay, conditions: range symbols
Work on `Cc1c(-c2ccc(CN3Cc4ccc(NC(N)=O)cc4C3)c(F)c2)cccc1-c1cccc(-c2nc3cc(CN4CCC[C@H]4C(=O)O)c(OC(F)F)cc3o2)c1C` [Example 258, ((6-(difluoromethoxy)-2-(3″-fluoro-2,2′-dimethyl-4″-((5-ureidoisoindolin-2-yl)methyl)-[1,1′:3′,1″-terphenyl]-3-yl)benzo[d]oxazol-5-yl)methyl)-L-proline] yielded a pIC50 of 7.30 to 8.30. `Cc1c(-c2nc3cc(CN4CC[C@H](C(=O)O)C4)c(OC(F)F)cc3o2)cccc1-c1cccc(-c2nc3cc(CN4CC[C@H](C)C4)cc(C#N)c3o2)c1C` [Example 259, (S)-1-((2-(3′-(7-cyano-5-(((S)-3-methylpyrrolidin-1-yl)methyl)benzo[d]oxazol-2-yl)-2,2′-dimethyl-[1,1′-biphenyl]-3-yl)-6-(difluoromethoxy)benzo[d]oxazol-5-yl)methyl)pyrrolidine-3-carboxylic acid] showed a pIC50 of 8.30 to 10.00. `Cc1c(-c2ccc(CN3CCC(NC(N)=O)C3)c(F)c2)cccc1-c1cccc(-c2nc3cc(CN4CCC[C@H]4C(=O)O)c(OC(F)F)cc3o2)c1C` (stereo partly drawn) [Example 260, ((6-(difluoromethoxy)-2-(3″-fluoro-2,2′-dimethyl-4″-((3-ureidopyrrolidin-1-yl)methyl)-[1,1′:3′,1″-terphenyl]-3-yl)benzo[d]oxazol-5-yl)methyl)-L-proline] was tested, and the pIC50 was 7.30 to 8.30. `Cc1c(-c2nc3cc(CN4CCC[C@H]4C(=O)O)c(OC(F)F)cc3o2)cccc1-c1cccc(-c2nc3cc(CN4CC[C@H](Cl)C4)cc(C#N)c3o2)c1C` [Example 261, ((2-(3′-(5-(((S)-3-chloropyrrolidin-1-yl)methyl)-7-cyanobenzo [d]oxazol-2-yl)-2,2′-dimethyl-[1,1′-biphenyl]-3-yl)-6-(difluoromethoxy)benzo[d]oxazol-5-yl)methyl)-L-proline] showed a pIC50 of 8.30 to 10.00. In the case of `Cc1c(-c2nc3cc(CN4CCC[C@H]4C(=O)O)c(OC(F)F)cc3o2)cccc1-c1cccc(-c2cnc(CN3CCCC3)cc2F)c1C` [Example 262, ((6-(difluoromethoxy)-2-(3′-(4-fluoro-6-(pyrrolidin-1-ylmethyl)pyridin-3-yl)-2,2′-dimethyl-[1,1′-biphenyl]-3-yl)benzo[d]oxazol-5-yl)methyl)-L-proline], the pIC50 was 7.30 to 8.30. `Cc1c(-c2ccc(CN3CCCC3)cn2)cccc1-c1cccc(-c2nc3cc(CN4CCC[C@H]4C(=O)O)c(OC(F)F)cc3o2)c1C` [Example 264, ((6-(difluoromethoxy)-2-(2,2′-dimethyl-3′-(5-(pyrrolidin-1-ylmethyl)pyridin-2-yl)-[1,1′-biphenyl]-3-yl)benzo[d]oxazol-5-yl)methyl)-L-proline] gave a pIC50 of 8.30 to 10.00. With `Cc1c(-c2ccc(CN3CCCC3)c(=O)[nH]2)cccc1-c1cccc(-c2nc3cc(CN4CCC[C@H]4C(=O)O)c(OC(F)F)cc3o2)c1C` [Example 267, ((6-(difluoromethoxy)-2-(2,2′-dimethyl-3′-(6-oxo-5-(pyrrolidin-1-ylmethyl)-1,6-dihydropyridin-2-yl)-[1,1′-biphenyl]-3-yl)benzo[d]oxazol-5-yl)methyl)-L-proline] the pIC50 was 7.30 to 8.30. `Cc1c(-c2nc3cc(CN4CCC[C@H]4C(=O)O)c(OC(F)F)cc3o2)cccc1-c1cccc(-c2cnc(CN3CCCC3)c(F)c2)c1C(F)F` [Example 268, ((6-(difluoromethoxy)-2-(2′-(difluoromethyl)-3′-(5-fluoro-6-(pyrrolidin-1-ylmethyl)pyridin-3-yl)-2-methyl-[1,1′-biphenyl]-3-yl)benzo[d]oxazol-5-yl)methyl)-L-proline] gave a pIC50 of 8.30 to 10.00. With `Cc1c(-c2nc3cc(CN4CCC[C@H]4C(=O)O)c(OC(F)F)cc3o2)cccc1-c1cccc(-c2cnc(CN3CCCC3)c(F)c2)c1CF` [Example 269, ((6-(difluoromethoxy)-2-(3′-(5-fluoro-6-(pyrrolidin-1-ylmethyl)pyridin-3-yl)-2′-(fluoromethyl)-2-methyl-[1,1′-biphenyl]-3-yl)benzo[d]oxazol-5-yl)methyl)-L-proline] the pIC50 was 7.30 to 8.30. With `Cc1c(-c2nc3cc(CN4CCC[C@H]4C(=O)O)c(OC(F)F)cc3o2)cccc1-c1cccc(-c2ccc(CN3CCCC3)nc2F)c1C` [Example 270, ((6-(difluoromethoxy)-2-(3′-(2-fluoro-6-(pyrrolidin-1-ylmethyl)pyridin-3-yl)-2,2′-dimethyl-[1,1′-biphenyl]-3-yl)benzo[d]oxazol-5-yl)methyl)-L-proline] the pIC50 was 7.30 to 8.30. `COc1nc(-c2cccc(-c3cccc(-c4nc5cc(CN6CCC[C@H]6C(=O)O)c(OC(F)F)cc5o4)c3C)c2C)ccc1CN1CC(C)(C)C1` [Example 271, ((6-(difluoromethoxy)-2-(3′-(5-((3,3-dimethylazetidin-1-yl)methyl)-6-methoxypyridin-2-yl)-2,2′-dimethyl-[1,1′-biphenyl]-3-yl)benzo[d]oxazol-5-yl)methyl)-L-proline] showed a pIC50 of 8.30 to 10.00. Work on `COc1nc(-c2cccc(-c3cccc(-c4nc5cc(CN6CCC[C@@H]6C(=O)O)c(OC(F)F)cc5o4)c3C)c2C)ccc1CN1CC[C@H](C)C1` [Example 273, ((6-(difluoromethoxy)-2-(3′-(6-methoxy-5-(((S)-3-methylpyrrolidin-1-yl)methyl)pyridin-2-yl)-2,2′-dimethyl-[1,1′-biphenyl]-3-yl)benzo[d]oxazol-5-yl)methyl)-D-proline] yielded a pIC50 of 7.30 to 8.30. `C=Cc1cc(-c2cccc(-c3cccc(-c4nc5cc(CN6CCC[C@H]6C(=O)O)c(OC(F)F)cc5o4)c3C)c2C)ncc1CN1CCCC1` [Example 274, ((6-(difluoromethoxy)-2-(2,2′-dimethyl-3′-(5-(pyrrolidin-1-ylmethyl)-4-vinylpyridin-2-yl)-[1,1′-biphenyl]-3-yl)benzo[d]oxazol-5-yl)methyl)-L-proline] gave a pIC50 of 8.30 to 10.00. `COc1nc(-c2cccc(-c3cccc(-c4nc5cc(CN6CCC[C@H]6C(=O)O)c(OC(F)F)cc5o4)c3C)c2C)ccc1CN1CCC(C(F)F)C1` (stereo partly drawn) [Example 275, ((6-(difluoromethoxy)-2-(3′-(5-((3-(difluoromethyl)pyrrolidin-1-yl)methyl)-6-methoxypyridin-2-yl)-2,2′-dimethyl-[1,1′-biphenyl]-3-yl)benzo[d]oxazol-5-yl)methyl)-L-proline] gave a pIC50 of 7.30 to 8.30. `COc1nc(-c2cccc(-c3cccc(-c4nc5cc(CN6CCC[C@H]6C(=O)O)c(OC(F)F)cc5o4)c3C)c2C)ccc1CN1CCC[C@@H]1C` [Example 277, ((6-(difluoromethoxy)-2-(3′-(6-methoxy-5-(((S)-2-methylpyrrolidin-1-yl)methyl)pyridin-2-yl)-2,2′-dimethyl-[1,1′-biphenyl]-3-yl)benzo[d]oxazol-5-yl)methyl)-L-proline] was tested, and the pIC50 was 8.30 to 10.00. `COc1nc(-c2cccc(-c3cccc(-c4nc5cc(CN6CCC[C@H]6C(=O)O)c(OC(F)F)cc5o4)c3C)c2C)ccc1CN1C2CCC1CC2` [Example 278, ((2-(3′-(5-(((1s,4s)-7-azabicyclo[2.2.1]heptan-7-yl)methyl)-6-methoxypyridin-2-yl)-2,2′-dimethyl-[1,1′-biphenyl]-3-yl)-6-(difluoromethoxy)benzo[d]oxazol-5-yl)methyl)-L-proline] gave a pIC50 of 8.30 to 10.00. In the case of `COc1nc(-c2cccc(-c3cccc(-c4nc5cc(CN6CCC[C@H]6C(=O)O)c(OC(F)F)cc5o4)c3C)c2C)ccc1CN1CCC[C@H]1C` [Example 279, ((6-(difluoromethoxy)-2-(3′-(6-methoxy-5-(((R)-2-methylpyrrolidin-1-yl)methyl)pyridin-2-yl)-2,2′-dimethyl-[1,1′-biphenyl]-3-yl)benzo[d]oxazol-5-yl)methyl)-L-proline], the pIC50 was 8.30 to 10.00. `Cc1c(-c2cnc(N3CCN(C)CC3)nc2)cccc1-c1cccc(-c2nc3cc(CN4CCC[C@H]4C(=O)O)c(OC(F)F)cc3o2)c1C` [Example 282, ((6-(difluoromethoxy)-2-(2,2′-dimethyl-3′-(2-(4-methylpiperazin-1-yl)pyrimidin-5-yl)-[1,1′-biphenyl]-3-yl)benzo[d]oxazol-5-yl)methyl)-L-proline] gave a pIC50 of 7.30 to 8.30. Molecule `Cc1c(-c2cnc(CN3CCCC3)cn2)cccc1-c1cccc(-c2nc3cc(CN4CCC[C@H]4C(=O)O)c(OC(F)F)cc3o2)c1C` [Example 284, ((6-(difluoromethoxy)-2-(2,2′-dimethyl-3′-(5-(pyrrolidin-1-ylmethyl)pyrazin-2-yl)-[1,1′-biphenyl]-3-yl)benzo[d]oxazol-5-yl)methyl)-L-proline] has a pIC50 of 7.30 to 8.30.
